Results taken from patent US20060211755A1, “3-oxo-1, 3-dihydro-indazole-2-carboxylic acid amide derivatives as phospholipase inhibitors” (Eli Lilly and Company Patent Division, priority 2003, published 2006).

Target: T1, endothelial lipase (EL) (Homo sapiens, UniProt Q9Y5X9)
T1 construct: made in house; host or cells: AV12 cells (conditioned media, non-purified)
T1 sequence (Q9Y5X9 21-500): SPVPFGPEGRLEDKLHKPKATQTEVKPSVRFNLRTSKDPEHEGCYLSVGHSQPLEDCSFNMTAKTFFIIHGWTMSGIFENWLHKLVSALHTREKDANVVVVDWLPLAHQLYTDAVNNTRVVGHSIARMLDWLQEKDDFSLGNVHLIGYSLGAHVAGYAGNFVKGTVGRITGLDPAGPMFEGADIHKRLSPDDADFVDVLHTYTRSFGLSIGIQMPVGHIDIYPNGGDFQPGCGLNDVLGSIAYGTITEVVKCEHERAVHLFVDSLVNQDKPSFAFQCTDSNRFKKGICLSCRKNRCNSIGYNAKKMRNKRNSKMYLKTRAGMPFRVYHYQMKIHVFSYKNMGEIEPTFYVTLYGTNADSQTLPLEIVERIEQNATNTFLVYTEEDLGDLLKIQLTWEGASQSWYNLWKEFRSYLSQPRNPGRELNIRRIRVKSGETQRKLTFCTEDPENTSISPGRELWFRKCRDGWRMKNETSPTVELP
Experiment: Endothelial Lipase Inhibition (Thio PEG substrate, conditioned media)
Assay type: biochemical
Details: EL expressed from AV12 cells, 37° C., average of 3 experiments
Protocol: Methods for Characterization of Endothelial Lipase Activity
Hepatic lipase (HL) and endothelial lipase (EL) were expressed from AV12 cells. Aliquots from one day's collection of media were stored at −70° C. Activity was measured for both enzymes in conditioned media, (non-purified) where they were tested on the same plate with Thio PEG substrate (0.06 mol fraction, 7.24 mM total lipid), at 37° C. for 30 minutes. […] The OD for EL at 1× was 6.029. Therefore, when HL was used in studies where it was compared to EL, the HL was at 0.25× and EL was used at 1×. All experiments were done in triplicate with enzyme from conditioned media.
Assay conditions of assay were as follows. Both substrates for EL were run at 0.03 mol fraction, 10 mM total lipid. They were dissolved in 100 mM Hepes with 9.95 mM TX100. Both substrates for HL were run at 0.06 mol fraction and 7.25 mM total lipid. They were dissolved in 100 mM Hepes with 6.83 mM Triton X100. The EL enzyme was used at 1× and the HL enzyme was used at 0.25×. The order of addition was as follows: 10 μL of 10% DMSO, 80 μL of substrate and 10 μL of enzyme. The DMSO and substrate were incubated for 10 minutes at 37° C. before the addition of the enzyme. DTNB was added to the substrate prior to addition to the well at 0.096 mg/mL final plate. concentration. The experiments were performed 3 times. Data represents an average of these.
Several compounds were tested with HL and EL to determine their ability to inhibit these enzymes. Conditions of the assay were as mentioned in the previous paragraph except for the order of addition. In these experiments, the order of addition was 10 μL of drug/control, 10 μL of enzyme followed by a 10 minute incubation at 37° C. This was followed by the addition of the 80 μL of Thio PEG substrate containing DTNB. Each experiment was performed 3 times. Data represents an average.

IC50 [nM]	Compound
11.4 ± 5.17	CCc1ccccc1CNC(=O)n1[nH]c2ccccc2c1=O
73.8 ± 26.2	O=C(NCc1ccccc1)n1[nH]c2ccccc2c1=O
45.1 ± 27.5	O=C(NCc1ccc2c(c1)OCO2)n1[nH]c2ccccc2c1=O
13.2 ± 2.83	O=C(NCc1csc2ccccc12)n1[nH]c2ccccc2c1=O
